Laboratory results from publication PMC10804372, “Degradation by Design: New Cyclin K Degraders from Old CDK Inhibitors” (ACS Chemical Biology, 2024).

What was measured:
[1] = system: Cyclin K; test: Cyclin K levels by Western blot after single-concentration treatment; type: cell-based, human; settings: HEK293T cells, 1 μM for 2 h, quantified from Western blots, mean ± SD, three independent experiments
Summary of the method: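 Cyclin K quantified by Western blot of HEK293T lysates after a single compound concentration, with ImageJ densitometry normalized to GAPDH. Cells grown in DMEM/10% FBS at 37 °C, 5% CO2.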

[2] = system: Cyclin K; test: Cyclin K degradation concentration-response (DC50, DMax) by Western blot; type: cell-based, human; settings: HEK293T, Western blot quantification, 3 biological repeats
Summary of the method: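 HEK293T cells treated across a concentration range; lysates immunoblotted for Cyclin K with GAPDH as loading control, ECL detection. Band intensities quantified, Cyclin K normalized to GAPDH, and DC50 derived by 4-parameter nonlinear regression of concentration–response curves.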

[3] = biological target: T1, CDK12 (Homo sapiens, UniProt Q9NYV4); test: KINOMEscan binding assay (Eurofins DiscoverX); settings: KINOMEscan
T1 construct: purchased Eurofins DiscoverX (KINOMEscan service)

[4] = system: HEK293T cells; test: Proteome-wide quantitation by mass spectrometry (TMT); type: cell-based, human; settings: for log2FC compound 41: 1uM, 2h

T1 sequence (Q9NYV4 whole entry): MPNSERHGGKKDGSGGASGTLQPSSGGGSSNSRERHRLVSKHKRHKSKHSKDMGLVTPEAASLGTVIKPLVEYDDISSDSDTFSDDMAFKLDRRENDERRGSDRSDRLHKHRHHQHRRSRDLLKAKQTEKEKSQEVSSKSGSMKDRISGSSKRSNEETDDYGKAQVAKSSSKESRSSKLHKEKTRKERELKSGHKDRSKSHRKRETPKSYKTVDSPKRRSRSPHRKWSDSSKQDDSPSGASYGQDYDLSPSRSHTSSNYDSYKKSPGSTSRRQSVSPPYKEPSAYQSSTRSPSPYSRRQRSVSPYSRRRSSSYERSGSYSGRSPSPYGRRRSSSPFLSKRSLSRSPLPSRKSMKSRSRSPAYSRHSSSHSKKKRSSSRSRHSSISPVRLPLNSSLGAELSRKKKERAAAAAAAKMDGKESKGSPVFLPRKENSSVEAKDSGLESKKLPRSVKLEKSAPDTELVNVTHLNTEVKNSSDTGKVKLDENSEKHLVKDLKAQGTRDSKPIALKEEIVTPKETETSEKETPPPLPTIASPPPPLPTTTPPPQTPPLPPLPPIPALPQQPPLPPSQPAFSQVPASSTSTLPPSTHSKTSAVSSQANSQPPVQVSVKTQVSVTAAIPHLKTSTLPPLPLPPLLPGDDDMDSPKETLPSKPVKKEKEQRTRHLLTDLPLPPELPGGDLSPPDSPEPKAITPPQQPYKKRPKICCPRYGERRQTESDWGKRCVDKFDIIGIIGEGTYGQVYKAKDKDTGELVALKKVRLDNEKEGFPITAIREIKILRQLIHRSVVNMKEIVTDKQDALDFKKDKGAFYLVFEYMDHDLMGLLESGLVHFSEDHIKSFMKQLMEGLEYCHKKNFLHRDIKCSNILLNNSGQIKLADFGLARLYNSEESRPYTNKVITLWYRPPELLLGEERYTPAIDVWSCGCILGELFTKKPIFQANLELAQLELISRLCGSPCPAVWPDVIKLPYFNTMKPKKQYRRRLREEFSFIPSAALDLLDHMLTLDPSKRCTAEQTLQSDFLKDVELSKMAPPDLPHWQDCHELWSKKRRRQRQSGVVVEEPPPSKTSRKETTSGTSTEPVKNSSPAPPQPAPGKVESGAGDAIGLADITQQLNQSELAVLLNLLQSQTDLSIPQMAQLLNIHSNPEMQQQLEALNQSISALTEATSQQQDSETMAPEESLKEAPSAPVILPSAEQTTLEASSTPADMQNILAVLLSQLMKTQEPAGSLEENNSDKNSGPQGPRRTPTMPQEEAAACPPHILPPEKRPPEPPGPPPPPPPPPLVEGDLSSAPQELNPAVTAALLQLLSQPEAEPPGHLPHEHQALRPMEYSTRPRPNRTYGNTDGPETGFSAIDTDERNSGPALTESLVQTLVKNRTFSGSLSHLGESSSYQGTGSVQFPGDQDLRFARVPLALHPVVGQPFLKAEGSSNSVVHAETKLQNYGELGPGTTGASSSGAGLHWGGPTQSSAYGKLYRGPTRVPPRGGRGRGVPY

Compound: O=C(NCc1ccc(C2=CCOCC2)cc1)c1n[nH]cc1NC(=O)c1c(Cl)cccc1Cl [compound 41]
- Remaining Cyclin K (%) [1]: 3 ± 1%
- DMax (%) [2]: >95%
- DC50 ([2]; read-out: CycK DC50): 141 nM
- Kd [3]: 3800 nM
- log2FC compound 41 [4]: 1.1108
- number of proteins showing at least a −0.5 log2 fold change ([4]; HEK293T, 1 μM, 2 h treatment): 33 proteins
- log2FC compound 41 ([4]; protein AKR7A2 (Aflatoxin B1 aldehyde reductase member 2, O43488)): -0.7339
- log2FC compound 41 ([4]; protein ALG10 (Dol-P-Glc:Glc(2)Man(9)GlcNAc(2)-PP-Dol alpha-1,2-glucosyltransferase, Q5BKT4)): 0.9798
- log2FC compound 41 ([4]; protein ALKBH2 (DNA oxidative demethylase ALKBH2, Q6NS38)): 0.728
- log2FC compound 41 ([4]; protein ARF4 (ADP-ribosylation factor 4, P18085)): 0.7714
- log2FC compound 41 ([4]; protein ATP6AP1 (V-type proton ATPase subunit S1, Q15904)): 0.6251
- log2FC compound 41 ([4]; protein B3GLCT (Beta-1,3-glucosyltransferase, Q6Y288)): 0.6029
- log2FC compound 41 ([4]; protein BTF3L4 (Transcription factor BTF3 homolog 4, Q96K17)): 0.5924
- log2FC compound 41 ([4]; protein C1orf167 (Uncharacterized protein C1orf167, Q5SNV9)): 1.3705
- log2FC compound 41 ([4]; protein CCNK (Cyclin-K, O75909)): -1.4213
- log2FC compound 41 ([4]; protein CD9 (CD9 antigen, P21926)): 0.6995
- log2FC compound 41 ([4]; protein CD59 (CD59 glycoprotein, P13987)): 1.3635
- log2FC compound 41 ([4]; protein CD63 (CD63 antigen, P08962)): 1.3469
- log2FC compound 41 ([4]; protein CD151 (CD151 antigen, P48509)): 0.7942
- log2FC compound 41 ([4]; protein CDKL5 (Cyclin-dependent kinase-like 5, O76039)): 1.2994
- log2FC compound 41 ([4]; protein CENPW (Centromere protein W, Q5EE01)): 0.6212
- log2FC compound 41 ([4]; protein CERS1 (Ceramide synthase 1, P27544)): 0.5956
- log2FC compound 41 ([4]; protein CHCHD1 (Coiled-coil-helix-coiled-coil-helix domain-containing protein 1, Q96BP2)): -0.843
- log2FC compound 41 ([4]; protein CHCHD2 (Coiled-coil-helix-coiled-coil-helix domain-containing protein 2, Q9Y6H1)): -0.961
- log2FC compound 41 ([4]; protein CNOT8 (CCR4-NOT transcription complex subunit 8, Q9UFF9)): 0.5912
- log2FC compound 41 ([4]; protein COA7 (Cytochrome c oxidase assembly factor 7, Q96BR5)): -0.7413
- log2FC compound 41 ([4]; protein COPRS (Coordinator of PRMT5 and differentiation stimulator, Q9NQ92)): 0.7957
- log2FC compound 41 ([4]; protein COX6B1 (Cytochrome c oxidase subunit 6B1, P14854)): 0.7689
- log2FC compound 41 ([4]; protein COX7A2 (Cytochrome c oxidase subunit 7A2, mitochondrial, P14406)): -1.7055
- log2FC compound 41 ([4]; protein CSNK2B (Casein kinase II subunit beta, P67870)): 0.62
- log2FC compound 41 ([4]; protein CTSV (Cathepsin L2, O60911)): 0.7835
- log2FC compound 41 ([4]; protein DCDC1 (Doublecortin domain-containing protein 1, M0R2J8)): 1.8264
- log2FC compound 41 ([4]; protein DHX58 (Probable ATP-dependent RNA helicase DHX58, Q96C10)): 1.0451
- log2FC compound 41 ([4]; protein DNAJC5 (DnaJ homolog subfamily C member 5, Q9H3Z4)): 0.994
- log2FC compound 41 ([4]; protein DNPEP (Aspartyl aminopeptidase, Q9ULA0)): 0.6304
- log2FC compound 41 ([4]; protein DYNLL1 (Dynein light chain 1, cytoplasmic, P63167)): -0.6985
- log2FC compound 41 ([4]; protein ECI1 (Enoyl-CoA delta isomerase 1, mitochondrial, P42126)): 0.8277
- log2FC compound 41 ([4]; protein EI24 (Etoposide-induced protein 2.4 homolog, O14681)): 0.8122
- log2FC compound 41 ([4]; protein EIF5A2 (Eukaryotic translation initiation factor 5A-2, Q9GZV4)): 1.4183
- log2FC compound 41 ([4]; protein ELP5 (Elongator complex protein 5, Q8TE02)): 0.6971
- log2FC compound 41 ([4]; protein ERGIC3 (Endoplasmic reticulum-Golgi intermediate compartment protein 3, Q9Y282)): -0.6608
- log2FC compound 41 ([4]; protein FAM219A (Protein FAM219A, Q8IW50)): 0.6921
- log2FC compound 41 ([4]; protein FAM234A (Protein FAM234A, Q9H0X4)): 0.9598
- log2FC compound 41 ([4]; protein GGH (Gamma-glutamyl hydrolase, Q92820)): 0.639
- log2FC compound 41 ([4]; protein GNA15 (Guanine nucleotide-binding protein subunit alpha-15, P30679)): 1.1022
- log2FC compound 41 ([4]; protein GYG2 (Glycogenin-2, O15488)): 0.8256
- log2FC compound 41 ([4]; protein H2AC6 (Histone H2A type 1-C, Q93077)): -2.3143
- log2FC compound 41 ([4]; protein H2AC14 (Histone H2A type 1-J, Q99878)): -2.3989
- log2FC compound 41 ([4]; protein HMGN2 (Non-histone chromosomal protein HMG-17, P05204)): -0.8432
- log2FC compound 41 ([4]; protein HNRNPA2B1 (Heterogeneous nuclear ribonucleoproteins A2/B1, P22626)): -0.5885
- log2FC compound 41 ([4]; protein HSPB11 (Intraflagellar transport protein 25 homolog, Q9Y547)): 0.7236
- log2FC compound 41 ([4]; protein KCTD1 (BTB/POZ domain-containing protein KCTD1, Q719H9)): 0.9367
- log2FC compound 41 ([4]; protein KIAA0930 (Uncharacterized protein KIAA0930, Q6ICG6)): 0.6862
- log2FC compound 41 ([4]; protein KIAA1549 (UPF0606 protein KIAA1549, Q9HCM3)): 0.7226
- log2FC compound 41 ([4]; protein LIPA (Lysosomal acid lipase/cholesteryl ester hydrolase, P38571)): 0.766
- log2FC compound 41 ([4]; protein LIPT2 (Putative lipoyltransferase 2, mitochondrial, A6NK58)): -0.7183
- log2FC compound 41 ([4]; protein LPCAT3 (Lysophospholipid acyltransferase 5, Q6P1A2)): 1.5824
- log2FC compound 41 ([4]; protein LPIN2 (Phosphatidate phosphatase LPIN2, Q92539)): 0.7762
- log2FC compound 41 ([4]; protein LSM1 (U6 snRNA-associated Sm-like protein LSm1, O15116)): 1.1318
- log2FC compound 41 ([4]; protein MEIS1 (Homeobox protein Meis1, O00470)): -0.7006
- log2FC compound 41 ([4]; protein MGARP (Protein MGARP, Q8TDB4)): 0.8294
- log2FC compound 41 ([4]; protein MKRN1 (E3 ubiquitin-protein ligase makorin-1, Q9UHC7)): 0.6085
- log2FC compound 41 ([4]; protein MRPL24 (39S ribosomal protein L24, mitochondrial, Q96A35)): -0.8105
- log2FC compound 41 ([4]; protein MSMO1 (Methylsterol monooxygenase 1, Q15800)): 0.6949
- log2FC compound 41 ([4]; protein MT-ND4 (NADH-ubiquinone oxidoreductase chain 4, P03905)): 0.7038
- log2FC compound 41 ([4]; protein NCBP2AS2 (Protein NCBP2AS2, Q69YL0)): -0.5975
- log2FC compound 41 ([4]; protein NIPA2 (Magnesium transporter NIPA2, Q8N8Q9)): 0.8891
- log2FC compound 41 ([4]; protein NSMCE4A (Non-structural maintenance of chromosomes element 4 homolog A, Q9NXX6)): 0.6459
- log2FC compound 41 ([4]; protein NXT2 (NTF2-related export protein 2, Q9NPJ8)): 1.4453
- log2FC compound 41 ([4]; protein ORC4 (Origin recognition complex subunit 4, O43929)): 0.6334
- log2FC compound 41 ([4]; protein OSTC (Oligosaccharyltransferase complex subunit OSTC, Q9NRP0)): 0.6129
- log2FC compound 41 ([4]; protein POP5 (Ribonuclease P/MRP protein subunit POP5, Q969H6)): 0.6256
- log2FC compound 41 ([4]; protein PPP1CB (Serine/threonine-protein phosphatase PP1-beta catalytic subunit, P62140)): -0.8644
- log2FC compound 41 ([4]; protein PRPF38A (Pre-mRNA-splicing factor 38A, Q8NAV1)): 0.6341
- log2FC compound 41 ([4]; protein RBX1 (E3 ubiquitin-protein ligase RBX1, P62877)): 0.6251
- log2FC compound 41 ([4]; protein RER1 (Protein RER1, O15258)): 0.5922
- log2FC compound 41 ([4]; protein RPS29 (40S ribosomal protein S29, P62273)): -1.1057
- log2FC compound 41 ([4]; protein SDHAF4 (Succinate dehydrogenase assembly factor 4, mitochondrial, Q5VUM1)): 0.8419
- log2FC compound 41 ([4]; protein SEC11C (Signal peptidase complex catalytic subunit SEC11C, Q9BY50)): -0.5851
- log2FC compound 41 ([4]; protein SERINC3 (Serine incorporator 3, Q13530)): 0.6778
- log2FC compound 41 ([4]; protein SIAE (Sialate O-acetylesterase, Q9HAT2)): 0.753
- log2FC compound 41 ([4]; protein SLC25A17 (Peroxisomal membrane protein PMP34, O43808)): 1.1015
- log2FC compound 41 ([4]; protein SLC44A2 (Choline transporter-like protein 2, Q8IWA5)): 1.0845
- log2FC compound 41 ([4]; protein SPCS1 (Signal peptidase complex subunit 1, Q9Y6A9)): 0.6654
- log2FC compound 41 ([4]; protein STEAP2 (Metalloreductase STEAP2, Q8NFT2)): 0.6125
- log2FC compound 41 ([4]; protein SURF4 (Surfeit locus protein 4, O15260)): 0.8751
- log2FC compound 41 ([4]; protein TECR (Very-long-chain enoyl-CoA reductase, Q9NZ01)): 0.5914
- log2FC compound 41 ([4]; protein TMCC3 (Transmembrane and coiled-coil domain protein 3, Q9ULS5)): 0.6529
- log2FC compound 41 ([4]; protein TMED5 (Transmembrane emp24 domain-containing protein 5, Q9Y3A6)): 0.6722
- log2FC compound 41 ([4]; protein TMEM41A (Transmembrane protein 41A, Q96HV5)): 0.881
- log2FC compound 41 ([4]; protein TMSB4X (Thymosin beta-4, P62328)): -1.1542
- log2FC compound 41 ([4]; protein TVP23C (Golgi apparatus membrane protein TVP23 homolog C, Q96ET8)): 0.698
- log2FC compound 41 ([4]; protein UBE2R2 (Ubiquitin-conjugating enzyme E2 R2, Q712K3)): -0.7129
- log2FC compound 41 ([4]; protein WHAMM (WASP homolog-associated protein with actin, membranes and microtubules, Q8TF30)): -0.8329
- log2FC compound 41 ([4]; protein XPOT (Exportin-T, O43592)): 0.6641
- log2FC compound 41 ([4]; protein ZBTB17 (Zinc finger and BTB domain-containing protein 17, Q13105)): 1.0947
